This assay deals with Obese Fa/fa Zucker rats. Description: Effect on food intake (food consumption) in obese Zucker rats, five days of oral treatment. As to conditions: daily for 5 days. In kind it is in vivo, rat. The method, then: The synergistic effect of the combination of sibutramine and of a CB1 receptor antagonist on food intake was determined according to the following protocol:
Obese Fa/fa Zucker rats aged 7 weeks and originating from Iffa-Credo, France, were used in this study. The rats are housed in individual cages and weighed every day between 8 and 10 o'clock in the morning. The amount of food is also weighed each morning at the same time. This food (M20, Pietrement, France) is changed every day and the rats have free access thereto for 24 hours. All the rats are treated for a week with the vehicle (miglyol 812N and 0.5% methylcellulose/0.2% polysorbate 80) in two consecutive administrations. The rats are treated from the 8th day with the vehicle, the CB1 receptor antagonist (1-[bis(4-chlorophenyl)methyl]-3-[(3,5-difluorophenyl)-(methylsulfonyl)methylene]azetidine) or sibutramine by the oral route (see table below).
The sibutramine is dissolved in a 0.5% methylcellulose/0.2% polysorbate 80 solution and administered at a dose of 3 mg/kg; the CB1 receptor antagonist is dissolved in miglyol 812N (Hüls, Germany) at a dose of 0.6 mg/kg and the two products are administered under a volume of 1 ml/kg. Each group is composed of 12 to 14 animals. […]
The food consumption of each animal is measured every day. The results are expressed as mean amount of food consumed during the 5 days of treatment.

For the compound `CC(C)CC(N(C)C)C1(c2ccc(Cl)cc2)CCC1` (centres unmarked) [sibutramine, N-{1-[1-(4-chloro-phenyl)cyclobutyl]-3-methylbutyl}-N,N-dimethylamine], for the setting “sibutramine 3 mg/kg oral (after miglyol), mean amount of food consumed, vehicles 25.52 ± 0.30, p < 0.05”, the “Food consumption during the 5 days of treatment” value stood at 24.60 ± 0.32 g.

Regarding `CS(=O)(=O)C(=C1CN(C(c2ccc(Cl)cc2)c2ccc(Cl)cc2)C1)c1cc(F)cc(F)c1` [CB1 receptor antagonist, 1-[bis(4-chlorophenyl)methyl]-3-[(3,5-difluorophenyl)-(methylsulfonyl)methylene]azetidine], under “CB1 receptor antagonist 0.6 mg/kg oral in miglyol (then methylcellulose/polysorbate vehicle), vehicles 25.52 ± 0.30, p < 0.01”, the “Food consumption during the 5 days of treatment” value was found to be 24.00 ± 0.24 g.

These data come from patent US20080058381A1, “COMBINATION OF A CB1 RECEPTOR ANTAGONIST AND OF SIBUTRAMINE, THE PHARMACEUTICAL COMPOSITIONS COMPRISING THEM AND THEIR USE IN THE TREATMENT OF OBESITY” (priority 2000, published 2008).
